From patent US7964556B1, “Antimicrobial peptides and use thereof” (Toagosei Co., Ltd, priority 2004, dated 2011)
Where a SMILES comes first, the peptide text is derived from it.

Key:
Format in all cases: cell-based
S. aureus = test system: S. aureus
Procedure: Next, the antimicrobial activities (MIC) against gram-positive bacteria (S. aureus) in the presence of serum and high concentration of cation were tested with the same method as Example 2. However, only the above-described sample 9 was used as the test peptide. Specifically, a drug (synthesized peptide of sample 9) solution having a concentration of 40 times of the highest test concentration was prepared using sterile distilled water. Thereafter, MHB mediums (“Mueller Hinton Broth” manufactured by DIFCO) including high concentration of cation with peptide concentrations of 50, 25, 12.5, 6.25, 3.13, 1.56 and 0.78 μM were produced respectively. The cation included was prepared as follows: dissolving 3.68 g of CaCl2.2H2O in 100 mL of purified water (10 mg.Ca^2+/mL), and thereafter adding 500 μL thereof into 100 mL of Mueller Hinton Broth; and dissolving 8.36 g of MgCl2.6H2O in 100 mL of purified water (10 mg.Mg^2+/mL), and thereafter adding 250 μL thereof into 100 mL of Mueller Hinton Broth.
Mediums (hereinafter “MHB serum mediums including high concentration of cation”) were further prepared by adding horse serum (mechanically sterilized Nippon Biotest Laboratories inc. product), which made up of 10% volume ratio of the entire medium, into the MHB mediums including high concentration of cation. The MHB serum mediums including high concentration of cation had peptide concentrations of 50, 25, 12.5, 6.25, 3.13, 1.56 and 0.78 μM.
Next, the above-described MHB mediums including high concentration of cation and having peptide of each concentration, and the above-described MHB serum mediums including high concentration of cation and having peptide of each concentration were fed to the 96-well microplate at 100 μL a time, and the MIC were determined using the same method as example 2. As comparison, commercially available MHB mediums having peptide concentration of 50, 25, 12.5, 6.25, 3.13, 1.56 and 0.78 μM were used.

Staphylococcus aureus = conditions: for Antimicrobial Activities (MIC) S. aureus: 24 h; for antimicrobial activities against gram-positive bacteria (S. aureus), in words: summary of Table 2
Procedure: (§1) Regarding the antimicrobial peptide in samples 1 to 14 and the comparative sample 1, the antimicrobial activities (minimum inhibitory concentration: MIC) with respect to gram-negative bacteria (Escherichia coli) and gram-positive bacteria (Staphylococcus aureus) were determined, as described below, by a liquid medium dilution technique using a 96-well microplate. First, a drug (synthesized peptide) solution having a concentration of 40 times of the highest test concentration was prepared using sterile distilled water, and thereafter liquid-bouillon mediums (“NUTRIENT BROTH Dehydrated” manufactured by DIFCO) having peptide concentrations of 200, 100, 50, 25, 12.5, 6.25, 3.13, 1.56 and 0.78 μM were produced respectively. The produced liquid-bouillon mediums including the peptide of each concentration were then fed to the 96-well microplate at 100 μL a time.
(§2) At the same time, test bacteria cultured for 18 hours at 37° C. on an agar plate (“Muller Hinton Agar” manufactured by DIFCO) were gathered by scratching with a loop, and then suspended in a sterilized physiological saline. Bacterial suspension 5 μL prepared at an equivalent of 2×10^7 cells/mL was respectively inoculated (number of bacteria to be tested: approximately 1×10^6 cells/mL) onto the above-described liquid-bouillon mediums including the peptide of each concentration and fed to each well of the above-described microplate. After inoculation, the microplate was then incubated in an incubator at 37° C., and the presence of bacteria was evaluated based on the turbidity 24 hours later. The minimum drug concentration (peptide concentration), in which an increased in turbidity caused by bacteria was not detected at the time of measurement, was defined as MIC (minimum inhibitory concentration) (unit: μM) in the present embodiment.

Escherichia coli = conditions: 24 h
Procedure: as §1, §2

sheep's erythrocytes = test system: sheep's erythrocytes
Procedure: A test on the hemolytic activity of 2 kinds of synthesized peptides (sample 9 and sample 10) in example 1 was performed and served as indicator of the effects of these peptides on animal cell (erythrocyte). The hemolytic activity test in the present example was performed as follows. Specifically, sample peptides were dissolved in PBS (pH7.4), and thereafter 10 stages of twice diluted strains (sample solutions) with peptide concentration of 400, 200, 100, 50, 25, 12.5, 6.25, 3.13, 1.56 and 0.78 μM were prepared. Here, PBS was used as a control of 0% hemolysis, and PBS containing 0.1% of triton X-100 was used as a control of 100% hemolysis. Erythrocyte of fiber-free sheep's blood was then added to these sample solutions such that the volume ratio (v/v) was 1% of these sample solutions. After adding the above-described red blood cells, the sample solutions were incubated for 1 hour at 37° C., and thereafter the hemolysis was ceased with cold water. Next, centrifugal separation at 3000 rpm was performed for […] at 4° C.
After centrifugal separation, each supernatant was fed to the 96-well microplate, and absorbency under 540 nm wavelength was determined. The hemolytic rate (%) was then calculated by the following formula based on the results determined: {(Aexp−A0)/A100}×100. […]

SMILES	Antimicrobial Activities (MIC) against S. aureus, MHB (S. aureus) [µM]	Antimicrobial Activities (MIC) against S. aureus, MHB + Cation (S. aureus) [µM]	Antimicrobial Activities (MIC) against S. aureus, MHB + Cation + Horse Serum (S. aureus) [µM]	Antimicrobial Activities (MIC) S. aureus (Staphylococcus aureus) [µM]	antimicrobial activities against gram-positive bacteria (S. aureus), in words (Staphylococcus aureus)	Antimicrobial Activities (MIC) E. coli (Escherichia coli) [µM]	hemolytic activities, in words (sheep's erythrocytes)
CC[C@H](C)[C@H](NC(=O)[C@H](CCC(N)=O)NC(=O)[C@@H](NC(=O)[C@H](CCCCN)NC(=O)[C@@H](NC(=O)[C@H](CCCCN)NC(=O)[C@H](CCCNC(=N)N)NC(=O)[C@H](CCCCN)NC(=O)[C@H](CCCCN)NC(=O)[C@H](CCCCN)NC(=O)[C@@H](N)CCCNC(=N)N)C(C)C)C(C)C)C(=O)N[C@H](C(=O)N[C@@H](CC(N)=O)C(=O)N[C@@H](CCCCN)C(=O)N[C@@H](CCCCN)C(N)=O)[C@@H](C)CC [Sample 9, RKKKRKVKVQIINKK] (H-RKKKRKVKVQIINKK-NH2)	3.13	3.13	3.13	0.78	particularly high antimicrobial activities	3.13	significantly low
CC(C)[C@H](NC(=O)[C@H](C)NC(=O)[C@@H](NC(=O)[C@H](CCCCN)NC(=O)[C@H](CCCCN)NC(=O)[C@@H](NC(=O)[C@H](CCCCN)NC(=O)[C@H](CCCNC(=N)N)NC(=O)[C@H](CCCCN)NC(=O)[C@H](CCCCN)NC(=O)[C@H](CCCCN)NC(=O)[C@@H](N)CCCNC(=N)N)C(C)C)C(C)C)C(=O)N[C@H](C(=O)N[C@@H](CCCNC(=N)N)C(=O)N[C@H](C(N)=O)[C@@H](C)O)C(C)C [Sample 10, RKKKRKVKKVAVVRT] (H-RKKKRKVKKVAVVRT-NH2)				3.13	particularly high antimicrobial activities	12.5	significantly low
